Where two headings read alike, the source gives them in different places.

From paper PMC7018645, “Hijacking the Fusion Complex of Human Parainfluenza Virus as an Antiviral Strategy” (mBio, 2020) come the findings set out here.

Assay [1] concerns HPIV3 clinical isolate (CI-1) eGFP.
The test system of assay [2] is clinical isolate HPIV3 HN. The assay is described as follows: Hemadsorption (HAD) assay of HN-receptor binding. It is filed as cell-based, human parainfluenza virus type 3. The note with it: cells expressing clinical strain HN, RBC binding. On the procedure:
We assessed the effect of PAC-3066 on HPIV3 HN-receptor binding in a hemadsorption (HAD) assay that quantitates the binding of sialic acid receptor-bearing erythrocytes (RBC) to HN/F-coexpressing cells.
(§1) (A) Sensitivity of HN-receptor binding to viral entry inhibitors of cell monolayers expressing clinical isolate HPIV3 HN, incubated with either PAC-3066, zanamivir, or DMSO. Percent inhibition relative to that for DMSO-treated cells is shown. Each point represents the mean from 3 experiments, each of which was performed in triplicate, ± SEM. […] Each bar represents the results from triplicate experiments, each of which was performed in triplicate, ± SEM.
Hemadsorption (HAD) was performed and quantified as previously described ([13]). Briefly, the growth medium was aspirated from HN-transfected 293T cell monolayers in 48-well BioCoat plates (Becton Dickson Labware), the medium was replaced with 150 μl of CO2-independent medium (pH 7.3; Gibco) containing different concentrations of compounds and 1% RBC in serum-free CO2-independent medium, and the plates were placed at 4°C for 30 min. The wells were then washed three times with 150 μl cold CO2-independent medium. The bound RBCs were lysed with 200 μl RBC lysis solution (0.145 M NH4Cl, 17 mM Tris HCl), and the absorbance at 405 nm was read using a Tecan M-1000 Pro microplate reader.

For assay [3], the system named is HPIV3 clinical isolate HN neuraminidase. As to the kind of experiment: Neuraminidase activity on cell monolayers expressing HN. It is filed as biochemical, human parainfluenza virus type 3. The note with it: 37°C, pH 5. On the procedure: as §1
Assays for the measurement of neuraminidase activity were performed in transiently transfected 293T cell monolayers, as described previously ([13], [34], [82]). Briefly, 293T cells expressing HN were added to 96-well plates in CO2-independent medium at pH 5.0. After adding reaction mixtures containing 20 mM 2′-(4-methylumbelliferyl)-alpha-D-N-acetylneuraminic acid (Toronto Research Chemicals Inc.) substrate and different concentrations of the compounds, the plates were incubated at 37°C for 1 h. Throughout this period, the fluorescence resulting from hydrolysis of the substrate was read at a 365-nm excitation wavelength and a 450-nm emission wavelength using a Tecan M-1000 Pro microplate reader.

For assay [4], the system named is mCherry-HPIV3.
Assay [5] concerns HPIV3 clinical isolate (CI-1) eGFP. As to the kind of experiment: microbe, parasite or virus in culture. The following applies: Human respirovirus 3, read-out: IC50 for inhibition of viral entry.
For assay [6], the system named is mCherry-HPIV3. The assay is described as follows: microbe, parasite or virus in culture. The note with it: Human respirovirus 3, Vero, read-out: IC50 of pure compound (inhibition of viral spread).

For the compound `N#CCc1cc(NS(=O)(=O)c2cccs2)ccc1O` [CM9, reference compound], in assay [1], the “inhibition of viral infection by HPIV3” value is given as “inhibited viral infection by HPIV3”.

Consider `CC(=O)Nc1cc(NS(=O)(=O)c2ccc(F)cc2F)ccc1O` [PAC-3066], for which, in assay [2], the “effect on HN-receptor binding” value is “did not affect receptor binding”. In addition, the “effect on viral neuraminidase activity” value in assay [3] is “no inhibitory effect”. The “inhibition of viral infection by HPIV3” value in assay [1] is given as “inhibited viral infection by HPIV3”. Further, the “combination effect with zanamivir” value is reported as “only additive effects were observed” in assay [4] (PAC-3066 concentrations below 250 μM); “no synergy” in assay [4] (higher PAC-3066 concentrations, e.g. 1,000 μM); “strong synergy” in assay [4] (range of zanamivir/PAC-3066 ratios, strongest at 1:1, 1:3 or greater, PAC-3066 250 μM, Combenefit). For the same compound, the antagonism with zanamivir result in assay [4] (all pairwise combinations) is given as “No significant antagonism was observed”. Besides, the results for the IC50 in assay [5] and in assay [6] were around 37 µM and 308 µM, respectively.

In the case of `CC(=O)N[C@H]1[C@H]([C@H](O)[C@H](O)CO)OC(C(=O)O)=C[C@@H]1N=C(N)N` [zanamivir, reference compound], the “effect on HN-receptor binding” value in assay [2] is “inhibits HN-receptor binding”. The “effect on viral neuraminidase activity” value in assay [3] was “inhibits HPIV3 HN’s neuraminidase”.
